In patent US8697888B2, “Substituted (1-(methylsulfonyl)azetidin-3-yl)(heterocycloalkyl)methanone analogs as antagonists of muscarinic acetylcholine M1 receptors” (Vanderbilt University, priority 2012, dated 2014):
Read-outs that look alike come from different tables or passages of the source.

Target: T1, mAChR M1 (UniProt P11229)
T1 sequence (P11229 1-460): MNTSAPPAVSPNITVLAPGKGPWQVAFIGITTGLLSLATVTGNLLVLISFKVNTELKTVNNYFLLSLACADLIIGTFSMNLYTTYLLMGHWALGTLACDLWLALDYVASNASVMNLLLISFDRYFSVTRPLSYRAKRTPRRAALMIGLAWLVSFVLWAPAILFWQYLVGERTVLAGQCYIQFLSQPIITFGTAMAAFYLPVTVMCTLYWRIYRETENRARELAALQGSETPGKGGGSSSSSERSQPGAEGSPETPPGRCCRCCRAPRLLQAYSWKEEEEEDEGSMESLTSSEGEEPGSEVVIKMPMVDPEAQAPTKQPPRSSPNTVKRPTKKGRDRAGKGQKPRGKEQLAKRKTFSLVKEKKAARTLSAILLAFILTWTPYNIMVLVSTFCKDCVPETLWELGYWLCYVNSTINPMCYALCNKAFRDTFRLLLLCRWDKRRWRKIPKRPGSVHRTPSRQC
Assay: mAChR M1 cell-based functional assay (calcium mobilization, antagonist mode)
Text: Chinese hamster ovary (CHO-K1) cells stably expressing rat (r)M1 were purchased from the American Type Culture Collection and cultured according to their indicated protocol. CHO cells stably expressing human (h)M2, hM3, and hM5 were described previously (Levey, et al., 1991); hM1 and hM4 cDNAs were purchased from Missouri S&T cDNA Resource; rM4 cDNA was provided by T. I. Bonner (National Institutes of Health, Bethesda, Md.). rM2 and rM3 were cloned from a rat brain cDNA library and sequence verified. hM1, rM2, rM3, hM4, and rM4 cDNAs were used to stably transfect CHO-K1 cells purchased from the American Type Culture Collection using Lipofectamine-2000. To make stable rM2, hM2, rM3, hM4, and rM4 cell lines for use in calcium mobilization assays, these cells also were stably transfected with a chimeric G-protein (Gqi5) (provided by B. R. Conklin, University of California, San Francisco) using Lipofectamine 2000. rM1, hM1, rM3, hM3, rM5, and hM5 cells were grown in Ham's F-12 medium containing 10% heat-inactivated fetal bovine serum (FBS), 20 mM HEPES, and 50 μg/mL G418 sulfate. rM2-Gqi5, hM2-Gqi5, and hM4-Gqi5 cells were grown in the same medium also containing 500 μg/mL Hygromycin B. Stable rM4-Gqi5 cells were grown in DMEM containing 10% heat-inactivated FBS, 20 mM HEPES, 400 μg/mL G418 sulfate, and […].
For high throughput measurement of antagonist inhibited increases in intracellular calcium, CHO-K1 cells stably expressing muscarinic receptors were plated in growth medium lacking G418 and hygromycin at 15,000 cells/20 μL/well in Greiner 384-well black-walled, tissue culture (TC)-treated, clear-bottom plates (VWR). Cells were incubated overnight at 37° C. and 5% CO2. The next day, cells were washed using an ELX 405 (BioTek) with four washes (80 μL) of assay buffer then aspirated to 20 μL. Next, 20 μL of 16 μM Fluo-4/acetoxymethyl ester (Invitrogen, Carlsbad, Calif.) prepared as a 2.3 mM stock in DMSO and mixed in a 1:1 ratio with 10% (w/v) Pluronic F-127 and diluted in assay buffer was added to the wells and the cell plates were incubated for 50 min at 37° C. and 5% CO2. Dye was removed by washing with the ELX 405 (four 80 μL washes of assay buffer) then aspirated to 20 μL. Compound master plates were formatted in an 11 point CRC format (1:3 dilutions) in 100% DMSO with a starting concentration of 10 mM using the BRAVO liquid handler (Agilent). Test compound CRCs were then transferred to daughter plates (240 nL) using the Echo acoustic plate reformatter (Labcyte, Sunnyvale, Calif.) and then diluted into assay buffer (40 μL) to a 2× stock using a Thermo Fisher Combi (Thermo Fisher Scientific, Waltham, Mass.).
Calcium flux was measured using the Functional Drug Screening System (FDSS) 6000 (Hamamatsu Corporation, Tokyo, Japan) as an increase in the fluorescent static ratio. Compounds were applied to cells (20 μL, 2×) using the automated system of the FDSS 6000 at 4 s into the 300 s protocol and the data were collected at 1 Hz. At 144 s into the 300 s protocol, 10 μL of an EC20 concentration of the muscarinic receptor agonist acetylcholine was added (5×), followed by the addition of 12 μL an EC80 concentration of acetylcholine at the 230 s time point (5×). Agonist activity was analyzed as a concentration-dependent increase in calcium mobilization upon compound addition. Positive allosteric modulator activity was analyzed as a concentration-dependent increase in the EC20 acetylcholine response. Antagonist activity was analyzed as a concentration-dependent decrease in the EC80 acetylcholine response. Concentration-response curves were generated using a four-parameter logistical equation in XLfit curve fitting software (IDBS, Bridgewater, N.J.) for Excel (Microsoft, Redmond, Wash.) or Prism (GraphPad Software, Inc., San Diego, Calif.).
The calcium mobilization assay was used to determine “potency”.

[1] = concentration of antagonist decreasing calcium flux by 50%; EC80 acetylcholine response; CHO-K1 cells expressing mAChR M1; read-out: Potency (IC50)
[2] = dash = baseline or about zero remaining activity (table footnote)
[3] = activity remaining at top dose of 30 μM test compound, as percentage of the response to an approx. EC80 concentration of ACh

Structure (SMILES) | IC50 [1] [µM] | Remaining Activity (%) [2] | Remaining Activity (%) [3] | IC50 (read-out: Potency (IC50); concentration of antagonist decreasing calcium flux by 50%; EC80 acetylcholine response; CHO-K1 cells expressing mAChR M1) [µM]
O=C(C1CN(S(=O)(=O)c2ccc(Cl)nc2)C1)N1CCN(c2ccncc2)CC1 [B12] | 0.35 | — (Unless otherwise indicated with a numerical value, the percent remaining activity is baseline or about zero, i.e. as indicated by “—”) | – | –
Cn1cnc(S(=O)(=O)N2CC(C(=O)N3CCN(c4ccncc4)CC3)C2)c1 [B66] | > 10 | – | ≧80% | –
CC(C)(C)CS(=O)(=O)N1CC(C(=O)N2CCN(c3ccncc3)CC2)C1 [B43] | > 10 | – | 43% | –
CCC(C)S(=O)(=O)N1CC(C(=O)N2CCN(c3ccncc3)CC2)C1 (centres unmarked) [B46] | > 10 | – | 52% | –
O=C(C1CN(S(=O)(=O)c2ccccc2OC(F)(F)F)C1)N1CCN(c2ccncc2)CC1 [B29] | 2.8 | — (Unless otherwise indicated with a numerical value, the percent remaining activity is baseline or about zero, i.e. as indicated by “—”) | – | –
O=C(C1CN(S(=O)(=O)c2ccc3c(c2)OCO3)C1)N1CC2CN(c3ccncc3)CC2C1 (centres unmarked) [B57] | 0.95 | — (Unless otherwise indicated with a numerical value, the percent remaining activity is baseline or about zero, i.e. as indicated by “—”) | – | –
CC(C)S(=O)(=O)N1CC(C(=O)N2CC3CN(c4ccncc4)CC3C2)C1 (centres unmarked) [B84] | > 10 | – | ≧80% | –
O=C(C1CN(S(=O)(=O)c2ccc3c(c2)OCO3)C1)N1CCN(c2ccncc2)CC1 [B9] | – | — (Unless otherwise indicated with a numerical value, the percent remaining activity is baseline or about zero, i.e. as indicated by “—”) | – | –
O=C(C1CN(S(=O)(=O)c2cccc3cnccc23)C1)N1CC2CN(c3ccncc3)CC2C1 (centres unmarked) [B3] | 0.057 | — (Unless otherwise indicated with a numerical value, the percent remaining activity is baseline or about zero, i.e. as indicated by “—”) | – | –
O=C(C1CN(S(=O)(=O)c2ccc3c(c2)CCO3)C1)N1CCN(c2ccncc2)CC1 [B5] | 0.095 | — (Unless otherwise indicated with a numerical value, the percent remaining activity is baseline or about zero, i.e. as indicated by “—”) | – | –
Cc1ccnc(S(=O)(=O)N2CC(C(=O)N3CCN(c4ccncc4)CC3)C2)c1 [B40] | > 10 | – | 41% | –
O=C(C1CN(S(=O)(=O)c2cccc(Cl)c2Cl)C1)N1CCN(c2ccncc2)CC1 [B16] | 0.62 | — (Unless otherwise indicated with a numerical value, the percent remaining activity is baseline or about zero, i.e. as indicated by “—”) | – | –
O=C(C1CN(S(=O)(=O)c2ccc3cn[nH]c3c2)C1)N1CCN(c2ccncc2)CC1 [B37] | > 10 | – | 26% | –
O=C(C1CN(S(=O)(=O)c2cccc3nsnc23)C1)N1CC2CN(c3ccncc3)CC2C1 (centres unmarked) [B53] | – | — (Unless otherwise indicated with a numerical value, the percent remaining activity is baseline or about zero, i.e. as indicated by “—”) | – | –
O=C(C1CN(S(=O)(=O)c2cccc3ncccc23)C1)N1CCN(c2ccncc2)CC1 [B26] | – | — (Unless otherwise indicated with a numerical value, the percent remaining activity is baseline or about zero, i.e. as indicated by “—”) | – | –
O=C(C1CN(S(=O)(=O)c2cccc3cnccc23)C1)N1CCN(c2ccncn2)CC1 [B20] | – | — (Unless otherwise indicated with a numerical value, the percent remaining activity is baseline or about zero, i.e. as indicated by “—”) | – | –
O=C(C1CN(S(=O)(=O)c2cccc(OC(F)(F)F)c2)C1)N1CCN(c2ccncc2)CC1 [B69] | > 10 | – | ≧80% | –

Structure (SMILES) | IC50 [1] [µM] | Remaining Activity (%) [2] | Remaining Activity (%) [3] | IC50 (read-out: Potency (IC50); concentration of antagonist decreasing calcium flux by 50%; EC80 acetylcholine response; CHO-K1 cells expressing mAChR M1) [µM]
O=C(C1CN(S(=O)(=O)c2cccc(Cl)c2Cl)C1)N1CC2CN(c3ccncc3)CC2C1 (centres unmarked) [B58] | – | — (Unless otherwise indicated with a numerical value, the percent remaining activity is baseline or about zero, i.e. as indicated by “—”) | – | –
CN1C(=O)Cc2cc(S(=O)(=O)N3CC(C(=O)N4CCN(c5ccncc5)CC4)C3)ccc21 [B49] | > 10 | – | 48% | –
O=C(C1CN(S(=O)(=O)c2ccc3[nH]ncc3c2)C1)N1CCN(c2ccncc2)CC1 [B76] | > 10 | – | ≧80% | –
O=C(C1CN(S(=O)(=O)c2ccc(N3CCOCC3)nc2)C1)N1CCN(c2ccncc2)CC1 [B74] | > 10 | – | ≧80% | –
O=C(C1CN(S(=O)(=O)c2cccc3cnccc23)C1)N1CCC(c2cccnc2)C1 (centres unmarked) [B48] | > 10 | – | 30% | –
CN1CCN(C(=O)C2CN(S(=O)(=O)c3cccc4cnccc34)C2)CC1 [B80] | > 10 | – | ≧80% | –
O=C(C1CN(S(=O)(=O)c2ccc3ccccc3c2)C1)N1CCN(c2ccncc2)CC1 [B77] | > 10 | – | ≧80% | –
O=C(C1CN(S(=O)(=O)c2cccc3nsnc23)C1)N1CCN(c2ccncc2)CC1 [B28] | 2.2 | — (Unless otherwise indicated with a numerical value, the percent remaining activity is baseline or about zero, i.e. as indicated by “—”) | – | –
O=C(C1CN(S(=O)(=O)c2cccc(Cl)c2)C1)N1CCN(c2ccncc2)CC1 [B36] | – | – | 27% | –
O=C(C1CN(S(=O)(=O)c2cccc3nonc23)C1)N1CCN(c2ccccn2)CC1 [B31] | > 10 | – | 11% | –
CC(C)(C)CS(=O)(=O)N1CC(C(=O)N2CC3CN(c4ccncc4)CC3C2)C1 (centres unmarked) [B55] | – | – | 56% | > 10
Cn1cc(S(=O)(=O)N2CC(C(=O)N3CC4CN(c5ccncc5)CC4C3)C2)cn1 (centres unmarked) [B83] | > 10 | – | ≧80% | –
O=C(C1CN(S(=O)(=O)c2cccnc2Cl)C1)N1CCN(c2ccncc2)CC1 [B21] | 0.86 | — (Unless otherwise indicated with a numerical value, the percent remaining activity is baseline or about zero, i.e. as indicated by “—”) | – | –
O=C(C1CN(S(=O)(=O)c2cccc3c2OCCO3)C1)N1CCN(c2ccncc2)CC1 [B45] | > 10 | – | 27% | –
O=C(C1CN(S(=O)(=O)C2CCCCC2)C1)N1CC2CN(c3ccncc3)CC2C1 (centres unmarked) [B86] | > 10 | – | ≧80% | –
O=C(C1CN(S(=O)(=O)C2CCCCC2)C1)N1CCN(c2ccncc2)CC1 [B47] | > 10 | – | 50% | –
COc1ccc(S(=O)(=O)N2CC(C(=O)N3CCN(c4ccncc4)CC3)C2)cn1 [B38] | > 10 | – | 23% | –
